Test results reported in US8785457B2 (Cellzome Limited, priority 2009, dated 2014).
pIC50: −log10 of the molar value. Read-outs that look alike come from different tables or passages of the source.

Columns and labels:
[1] = biological target: T1, DNA-dependent protein kinase (DNA-PK) (Homo sapiens, UniProt P78527); assay: kinobeads assay, DNA-PK; assay type: binding
T1 construct: endogenous in cells; host or cells: Jurkat, clone E6-1 (ATCC TIB-152) cell lysate
Method in brief: (§1)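 Competitive binding in Jurkat cell lysate (5 mg/ml total protein): test compounds at various concentrations competed with beads bearing immobilized phenylmorpholin-chromen ligand. Bead-bound kinases were eluted and quantified by antibody dot blot with infrared detection; IC50 values came from dose-response curves.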

PI3K delta (PI3 Kd) = biological target: T2, PI3K delta (PI3 Kd) (Homo sapiens, UniProt O00329); assay: kinobeads assay, PI3K delta; assay type: binding
T2 construct: endogenous in cells; host or cells: Jurkat, clone E6-1 (ATCC TIB-152) cell lysate
Method in brief: as §1

[2] = Further Kinobeads Data, read-out: DNAPK
[3] = Further Kinobeads Data, read-out: PI3Kd
[4] = kinobeads assay, Table 4, read-out: Inhibition values (IC50) DNA-PK
[5] = kinobeads assay, Table 6, read-out: Inhibition values (IC50) DNAPK
[6] = kinobeads assay, Table 4, read-out: Inhibition values (IC50) PI3Kd
[7] = kinobeads assay, Table 6, read-out: Inhibition values (IC50) PI3Kd

T2 sequence (O00329 whole entry): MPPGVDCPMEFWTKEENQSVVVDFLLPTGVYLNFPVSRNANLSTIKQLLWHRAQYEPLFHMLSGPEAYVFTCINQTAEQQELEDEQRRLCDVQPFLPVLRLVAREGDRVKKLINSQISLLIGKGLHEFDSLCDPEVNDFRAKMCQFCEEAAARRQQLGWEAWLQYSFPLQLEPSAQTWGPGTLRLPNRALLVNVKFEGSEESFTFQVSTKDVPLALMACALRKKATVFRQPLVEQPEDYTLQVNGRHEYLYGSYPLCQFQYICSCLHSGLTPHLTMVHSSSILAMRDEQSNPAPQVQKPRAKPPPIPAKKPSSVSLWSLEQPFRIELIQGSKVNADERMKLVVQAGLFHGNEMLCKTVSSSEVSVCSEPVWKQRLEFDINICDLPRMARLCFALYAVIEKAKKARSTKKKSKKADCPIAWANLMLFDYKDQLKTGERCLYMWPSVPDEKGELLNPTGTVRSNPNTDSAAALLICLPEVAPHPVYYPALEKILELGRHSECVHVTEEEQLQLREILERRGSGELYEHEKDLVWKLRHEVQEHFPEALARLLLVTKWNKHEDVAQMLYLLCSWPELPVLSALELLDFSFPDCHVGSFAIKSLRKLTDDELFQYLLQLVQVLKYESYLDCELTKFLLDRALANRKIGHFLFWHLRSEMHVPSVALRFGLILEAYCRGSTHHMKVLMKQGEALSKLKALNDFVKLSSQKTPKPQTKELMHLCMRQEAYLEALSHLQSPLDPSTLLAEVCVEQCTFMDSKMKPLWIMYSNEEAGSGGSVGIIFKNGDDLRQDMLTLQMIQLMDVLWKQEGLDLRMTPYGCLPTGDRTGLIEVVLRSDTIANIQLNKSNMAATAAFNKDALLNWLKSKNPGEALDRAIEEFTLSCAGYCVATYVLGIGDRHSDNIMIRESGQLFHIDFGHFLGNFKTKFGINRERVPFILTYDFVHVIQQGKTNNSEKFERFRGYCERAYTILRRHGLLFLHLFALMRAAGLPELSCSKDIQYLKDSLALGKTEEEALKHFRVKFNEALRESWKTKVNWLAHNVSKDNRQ
T2 sequence (P27986 whole entry partner): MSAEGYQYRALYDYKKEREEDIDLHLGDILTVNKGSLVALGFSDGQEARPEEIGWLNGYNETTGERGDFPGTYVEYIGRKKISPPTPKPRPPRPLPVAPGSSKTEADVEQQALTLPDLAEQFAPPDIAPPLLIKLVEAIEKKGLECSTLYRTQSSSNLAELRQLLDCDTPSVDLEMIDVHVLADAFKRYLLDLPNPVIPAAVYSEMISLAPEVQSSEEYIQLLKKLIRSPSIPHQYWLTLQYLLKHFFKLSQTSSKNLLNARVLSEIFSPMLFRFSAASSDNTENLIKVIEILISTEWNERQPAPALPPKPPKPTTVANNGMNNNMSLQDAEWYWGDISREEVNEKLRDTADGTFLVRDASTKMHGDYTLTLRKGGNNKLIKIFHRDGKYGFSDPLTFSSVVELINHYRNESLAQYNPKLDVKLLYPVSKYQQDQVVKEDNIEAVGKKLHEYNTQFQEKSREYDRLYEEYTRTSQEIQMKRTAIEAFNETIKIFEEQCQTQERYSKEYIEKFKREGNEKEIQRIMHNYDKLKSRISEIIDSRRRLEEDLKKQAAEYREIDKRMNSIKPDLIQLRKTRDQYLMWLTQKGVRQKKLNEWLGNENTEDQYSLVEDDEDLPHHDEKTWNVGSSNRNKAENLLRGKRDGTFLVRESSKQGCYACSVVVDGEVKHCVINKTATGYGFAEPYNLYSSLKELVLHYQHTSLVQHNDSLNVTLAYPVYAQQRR

Row | pIC50 [1, 2] | pIC50 (PI3K delta (PI3 Kd); [3]) | pIC50 [1, 4] | pIC50 [1, 5] | pIC50 (PI3K delta (PI3 Kd); [6]) | pIC50 (PI3K delta (PI3 Kd); [7]) | SMILES
1 | – | – | < 5.00 | < 5.00 | < 5.00 | < 5.00 | CCNC(=O)Nc1ccc(-c2nc3c(c(N4CCOC[C@@H]4C)n2)CCN(CC)C3)cc1 [Example 27, (S)-1-ethyl-3-(4-(7-ethyl-4-(3-methylmorpholino)-5,6,7,8-tetrahydropyrido[3,4-d]pyrimidin-2-yl)phenyl)urea]
2 | – | – | < 5.00 | < 5.00 | < 5.00 | < 5.00 | CCNC(=O)Nc1ccc(-c2nc3c(c(N4CCOC[C@@H]4C)n2)CCN(C(=O)C(C)C)C3)cc1 [Example 57, (S)-1-ethyl-3-(4-(7-isobutyryl-4-(3-methylmorpholino)-5,6,7,8-tetrahydropyrido[3,4-d]pyrimidin-2-yl)phenyl)urea]
3 | – | – | < 5.00 | < 5.00 | < 5.00 | < 5.00 | CCNC(=O)Nc1ccc(-c2nc3c(c(N4CCOC[C@@H]4C)n2)CCN(C(=O)C2CC2)C3)cc1 [Example 56, (S)-1-(4-(7-(cyclopropanecarbonyl)-4-(3-methylmorpholino)-5,6,7,8-tetrahydropyrido[3,4-d]pyrimidin-2-yl)phenyl)-3-ethylurea]
4 | – | – | < 5.00 | < 5.00 | < 5.00 | < 5.00 | CCNC(=O)N1Cc2nc(-c3ccc(NC(=O)NC4CC4)cc3)nc(N3CCOC[C@@H]3C)c2C1 [Example 33, (S)-2-(4-(3-cyclopropylureido)phenyl)-N-ethyl-4-(3-methylmorpholino)-5H-pyrrolo[3,4-d]pyrimidine-6(7H)-carboxamide]
5 | – | – | < 5.00 | < 5.00 | 5.00 to 6.00 | 5.00 to 6.00 | CCNC(=O)Nc1ccc(-c2nc3c(c(N4CCOC[C@@H]4C)n2)CN(C(=O)C(C)C)C3)cc1 [Example 21, (S)-1-ethyl-3-(4-(6-isobutyryl-4-(3-methylmorpholino)-6,7-dihydro-5H-pyrrolo[3,4-d]pyrimidin-2-yl)phenyl)urea]
6 | – | – | < 5.00 | < 5.00 | < 5.00 | < 5.00 | C[C@H]1COCCN1c1nc(-c2ccc(NC(=O)NC3CC3)cc2)nc2c1CN(CC(C)(C)C)C2 [Example 25, (S)-1-cyclopropyl-3-(4-(4-(3-methylmorpholino)-6-neopentyl-6,7-dihydro-5H-pyrrolo[3,4-d]pyrimidin-2-yl)phenyl)urea]
7 | – | – | < 5.00 | < 5.00 | < 5.00 | < 5.00 | CCNC(=O)Nc1ccc(-c2nc3c(c(N4CCOC[C@@H]4C)n2)CN(C(=O)c2ccc(F)cc2)C3)cc1 [Example 19, (S)-1-ethyl-3-(4-(6-(4-fluorobenzoyl)-4-(3-methylmorpholino)-6,7-dihydro-5H-pyrrolo[3,4-d]pyrimidin-2-yl)phenyl)urea]
8 | – | – | < 5.00 | < 5.00 | < 5.00 | < 5.00 | CCNC(=O)Nc1ccc(-c2nc3c(c(N4CCOC[C@@H]4C)n2)CCN(C(=O)c2ccc(F)cc2)C3)cc1 [Example 24, (S)-1-ethyl-3-(4-(7-(4-fluorobenzoyl)-4-(3-methylmorpholino)-5,6,7,8-tetrahydropyrido[3,4-d]pyrimidin-2-yl)phenyl)urea]
9 | – | – | < 5.00 | < 5.00 | < 5.00 | < 5.00 | C[C@H]1COCCN1c1nc(-c2ccc(NC(=O)NC3CC3)cc2)nc2c1CN(C)C2 [Example 38, (S)-1-cyclopropyl-3-(4-(6-methyl-4-(3-methylmorpholino)-6,7-dihydro-5H-pyrrolo[3,4-d]pyrimidin-2-yl)phenyl)urea]
10 | < 5.00 | < 5.00 | – | – | – | – | CC(C)C(=O)N1Cc2nc(-c3ccc(NC(=O)NC4CC4)cc3F)nc(N3CCOC[C@@H]3C)c2C1 [Example 174, (S)-1-cyclopropyl-3-(3-fluoro-4-(6-isobutyryl-4-(3-methylmorpholino)-6,7-dihydro-5H-pyrrolo[3,4-d]pyrimidin-2-yl)phenyl)urea]
11 | – | – | < 5.00 | < 5.00 | < 5.00 | < 5.00 | C[C@H]1COCCN1c1nc(-c2ccc(NC(=O)NC3CC3)cc2)nc2c1CN(CC1CC1)C2 [Example 30]
12 | – | – | < 5.00 | < 5.00 | 5.00 to 6.00 | 5.00 to 6.00 | CCNC(=O)Nc1ccc(-c2nc3c(c(N4CCOC[C@@H]4C)n2)CN(C(=O)C2CC2)C3)cc1 [Example 23, (S)-1-(4-(6-(cyclopropanecarbonyl)-4-(3-methylmorpholino)-6,7-dihydro-5H-pyrrolo[3,4-d]pyrimidin-2-yl)phenyl)-3-ethylurea]
13 | – | – | < 5.00 | < 5.00 | < 5.00 | < 5.00 | CCNC(=O)Nc1ccc(-c2nc3c(c(N4CCOC[C@@H]4C)n2)CCN(C)C3)cc1 [Example 35, (S)-1-ethyl-3-(4-(7-methyl-4-(3-methylmorpholino)-5,6,7,8-tetrahydropyrido[3,4-d]pyrimidin-2-yl)phenyl)urea]
14 | – | – | < 5.00 | < 5.00 | < 5.00 | < 5.00 | CC(C)N1Cc2nc(-c3ccc(NC(=O)NC4CC4)cc3)nc(N3CCOC[C@@H]3C)c2C1 [Example 46, (S)-1-cyclopropyl-3-(4-(6-isopropyl-4-(3-methylmorpholino)-6,7-dihydro-5H-pyrrolo[3,4-d]pyrimidin-2-yl)phenyl)urea]

The remaining lines, values behind:

Row | SMILES | pIC50 [1, 2] | pIC50 (PI3K delta (PI3 Kd); [3]) | pIC50 [1, 4] | pIC50 [1, 5] | pIC50 (PI3K delta (PI3 Kd); [6]) | pIC50 (PI3K delta (PI3 Kd); [7])
15 | C[C@@H]1COCCN1c1nc(-c2ccc(NC(=O)NC3CC3)cc2F)nc2c1CN(C(=O)C1CC1)C2 [Example 188, (R)-1-(4-(6-(cyclopropanecarbonyl)-4-(3-methylmorpholino)-6,7-dihydro-5H-pyrrolo[3,4-d]pyrimidin-2-yl)-3-fluorophenyl)-3-cyclopropylurea] | < 5.00 | < 5.00 | – | – | – | –
16 | C[C@H]1COCCN1c1nc(-c2ccc(NC(=O)NC3CC3)cc2)nc2c1CNCC2 [Example 11, (S)-1-cyclopropyl-3-(4-(4-(3-methylmorpholino)-5,6,7,8-tetrahydropyrido[4,3-d]pyrimidin-2-yl)phenyl)urea] | – | – | < 5.00 | < 5.00 | < 5.00 | < 5.00
17 | C[C@H]1COCCN1c1nc(-c2ccc(NC(=O)NC3CC3)cc2F)nc2c1CN(C(=O)N(C)C)C2 [Example 178, (S)-2-(4-(3-cyclopropylureido)-2-fluorophenyl)-N,N-dimethyl-4-(3-methylmorpholino)-5H-pyrrolo[3,4-d]pyrimidine-6(7H)-carboxamide] | < 5.00 | < 5.00 | – | – | – | –
18 | CCNC(=O)Nc1ccc(-c2nc3c(c(N4CCOC[C@@H]4C)n2)CCNC3)c(F)c1 [Example 164, (S)-1-ethyl-3-(3-fluoro-4-(4-(3-methylmorpholino)-5,6,7,8-tetrahydropyrido[3,4-d]pyrimidin-2-yl)phenyl)urea] | < 5.00 | < 5.00 | – | – | – | –
19 | C[C@H]1COCCN1c1nc(-c2ccc(NC(=O)NC3CC3)cc2)nc2c1CCNC2 [Example 15, (S)-1-cyclopropyl-3-(4-(4-(3-methylmorpholino)-5,6,7,8-tetrahydropyrido[3,4-d]pyrimidin-2-yl)phenyl)urea] | – | – | < 5.00 | < 5.00 | < 5.00 | < 5.00
20 | CCNC(=O)Nc1ccc(-c2nc3c(c(N4CCOCC4)n2)CN(C(=O)OC)C3)c(F)c1 [Example 162, methyl 2-(4-(3-ethylureido)-2-fluorophenyl)-4-morpholino-5H-pyrrolo[3,4-d]pyrimidine-6(7H)-carboxylate] | < 5.00 | 5.00 to 6.00 | – | – | – | –
21 | CN1Cc2nc(-c3ccc(NC(=O)NC4CC4)cc3F)nc(N3CCOCC3)c2C1 [Example 159, 1-(Cyclopropyl)-3-(3-fluoro-4-(6-methyl-4-morpholino-6,7-dihydro-5H-pyrrolo[3,4-d]pyrimidin-2-yl)phenyl)urea] | < 5.00 | < 5.00 | – | – | – | –
22 | COC(=O)N1Cc2nc(-c3ccc(NC(=O)NC4CC4)cc3F)nc(N3CCOCC3)c2C1 [Example 173, Methyl 2-(4-(3-cyclopropylureido)-2-fluorophenyl)-4-morpholino-5H-pyrrolo[3,4-d]pyrimidine-6(7H)-carboxylate] | < 5.00 | < 5.00 | – | – | – | –
23 | CC(C)N1Cc2nc(-c3ccc(NC(=O)NCCF)cc3F)nc(N3CCOCC3)c2C1 [Example 185, 1-(3-fluoro-4-(6-isopropyl-4-morpholino-6,7-dihyro-5H-pyrrolo[3,4-d]pyrimidin-2-yl)phenyl)-3-(2-fluoroethyl)urea] | < 5.00 | 5.00 to 6.00 | – | – | – | –
24 | CCNC(=O)Nc1ccc(-c2nc3c(c(N4CCOCC4)n2)CN(C)C3)c(F)c1 [Example 154, 1-ethyl-3-(3-fluoro-4-(6-methyl-4-morpholino-6,7-dihydro-5H-pyrrolo[3,4-d]pyrimidin-2-yl)phenyl)urea] | < 5.00 | < 5.00 | – | – | – | –
25 | C[C@@H]1COCCN1c1nc(-c2ccc(NC(=O)NC3CC3)cc2F)nc2c1CN(C=O)C2 [Example 190, (R)-1-cyclopropyl-3-(3-fluoro-4-(6-formyl-4-(3-methylmorpholino)-6,7-dihydro-5H-pyrrolo[3,4-d]pyrimidin-2-yl)phenyl)urea] | < 5.00 | < 5.00 | – | – | – | –
26 | CCOC(=O)N1Cc2nc(-c3ccc(NC(=O)NCCF)cc3F)nc(N3CCOCC3)c2C1 [Example 170, ethyl 2-(2-fluoro-4-(3-(2-fluoroethyl)ureido)phenyl)-4-morpholino-5H-pyrrolo[3,4-d]pyrimidine-6(7H)-carboxylate] | 5.00 to 6.00 | 5.00 to 6.00 | – | – | – | –
27 | C[C@H]1COCCN1c1nc(-c2ccc(NC(=O)NC3CC3)cc2)nc2c1CCN(CC(C)(C)C)C2 [Example 41, (S)-1-cyclopropyl-3-(4-(4-(3-methylmorpholino)-7-neopentyl-5,6,7,8-tetrahydropyrido[3,4-d]pyrimidin-2-yl)phenyl)urea] | – | – | < 5.00 | < 5.00 | < 5.00 | < 5.00
